From patent US20230123334A1, “AMINO LIPID COMPOUND, PREPARATION METHOD THEREFOR, AND APPLICATION THEREOF” (SHENZHEN SHENXIN BIOTECHNOLOGY CO., LTD., priority 2020, published 2023)

tested on: HEK293 cells; experiment: Preliminary screening as mRNA vectors, EGFP mRNA transfection of HEK293 cells; type: cell-based; conditions: EGFP mRNA 50 ng per well, 96-well plates; percentage of GFP fluorescent cells relative to total number of cells (Hoechst)
Procedure, shortened: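 Each well of HEK293 cells received 50 ng of EGFP mRNA. Efficiency was expressed as percent GFP-expressing cells over Hoechst-defined total cell number.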

Point of comparison: `CCCCCCCCCCCCCNc1nc(NCCCN(C)C)nc(SCCCCCCCC)n1` [Compound D6S8N13], “Absolute mRNA transfection efficiency in HEK293 cells” value 58.0%. Against it:
- CCCCCCCCCCCCCNc1nc(NCCCN(C)C)nc(SCCCCCCC)n1 [Compound D6S7N13] — lower, 44.9%
- CCCCCCCCCCCCCCCNc1nc(NCCCN(C)C)nc(SCCCCCCC)n1 [Compound D6S7N15] — lower, 37.9%
- CCCCCCCCCCCCCCCCNc1nc(NCCCN(C)C)nc(SCCCCCCC)n1 [Compound D6S7N16] — lower, 44.8%
- CCCCCCCCCCCCCCCCCCNc1nc(NCCCN(C)C)nc(SCCCCCCC)n1 [Compound D6S7N18] — lower, 49.2%
- CCCCCCCSc1nc(NCCCN(C)C)nc(SCCCCCCC)n1 [Compound D6S7S7] — lower, 29.3%
- CCCCCCCCSc1nc(NCCCN(C)C)nc(SCCCCCCC)n1 [Compound D6S7S8] — lower, 6.3%
- CCCCCCCCCSc1nc(NCCCN(C)C)nc(SCCCCCCC)n1 [Compound D6S7S9] — lower, 14.3%
- CCCCCCCCCCSc1nc(NCCCN(C)C)nc(SCCCCCCC)n1 [Compound D6S7S10] — lower, 18.1%
- CCCCCCCCCCCSc1nc(NCCCN(C)C)nc(SCCCCCCC)n1 [Compound D6S7S11] — higher, 68.6%
- CCCCCCCCCCCCSc1nc(NCCCN(C)C)nc(SCCCCCCC)n1 [Compound D6S7S12] — higher, 93.8%
- CCCCCCCCCCCCCCSc1nc(NCCCN(C)C)nc(SCCCCCCC)n1 [Compound D6S7S14] — higher, 59.7%
- CCCCCCCCCCCCCCCSc1nc(NCCCN(C)C)nc(SCCCCCCC)n1 [Compound D6S7S15] — higher, 90.0%
- CCCCCCCCCCCCCCCCSc1nc(NCCCN(C)C)nc(SCCCCCCC)n1 [Compound D6S7S16] — higher, 90.8%
- CCCCCCCCCCCCCCCCCCSc1nc(NCCCN(C)C)nc(SCCCCCCC)n1 [Compound D6S7S18] — lower, 22.0%
- CCCCCCCCSc1nc(NCCCCCC)nc(NCCCN(C)C)n1 [Compound D6S8N6] — lower, 9.4%
- CCCCCCCCSc1nc(NCCCCCCC)nc(NCCCN(C)C)n1 [Compound D6S8N7] — lower, 4.3%
- CCCCCCCCNc1nc(NCCCN(C)C)nc(SCCCCCCCC)n1 [Compound D6S8N8] — lower, 3.5%
- CCCCCCCCCNc1nc(NCCCN(C)C)nc(SCCCCCCCC)n1 [Compound D6S8N9] — lower, 6.7%
- CCCCCCCCCCCNc1nc(NCCCN(C)C)nc(SCCCCCCCC)n1 [Compound D6S8N11] — lower, 32.3%
- CCCCCCCCCCCCNc1nc(NCCCN(C)C)nc(SCCCCCCCC)n1 [Compound D6S8N12] — lower, 46.0%
- CCCCCCCCCCCCCCCNc1nc(NCCCN(C)C)nc(SCCCCCCCC)n1 [Compound D6S8N15] — lower, 55.3%
- CCCCCCCCCCCCCCCCNc1nc(NCCCN(C)C)nc(SCCCCCCCC)n1 [Compound D6S8N16] — higher, 67.0%
- CCCCCCCCCCCCCCCCCCNc1nc(NCCCN(C)C)nc(SCCCCCCCC)n1 [Compound D6S8N18] — lower, 40.4%
- CCCCCCCCSc1nc(NCCCN(C)C)nc(SCCCCCCCC)n1 [Compound D6S8S8] — lower, 45.6%
- CCCCCCCCCSc1nc(NCCCN(C)C)nc(SCCCCCCCC)n1 [Compound D6S8S9] — higher, 59.9%
- CCCCCCCCCCSc1nc(NCCCN(C)C)nc(SCCCCCCCC)n1 [Compound D6S8S10] — higher, 70.2%
- CCCCCCCCCCCSc1nc(NCCCN(C)C)nc(SCCCCCCCC)n1 [Compound D6S8S11] — higher, 92.3%
- CCCCCCCCCCCCSc1nc(NCCCN(C)C)nc(SCCCCCCCC)n1 [Compound D6S8S12] — higher, 61.9%
- CCCCCCCCCSc1nc(NCCCCCC)nc(NCCCN(C)C)n1 [Compound D6S9N6] — lower, 1.4%
- CCCCCCCCCSc1nc(NCCCCCCC)nc(NCCCN(C)C)n1 [Compound D6S9N7] — lower, 1.2%
- CCCCCCCCCSc1nc(NCCCCCCCC)nc(NCCCN(C)C)n1 [Compound D6S9N8] — lower, 7.5%
- CCCCCCCCCNc1nc(NCCCN(C)C)nc(SCCCCCCCCC)n1 [Compound D6S9N9] — lower, 19.8%
- CCCCCCCCCCCNc1nc(NCCCN(C)C)nc(SCCCCCCCCC)n1 [Compound D6S9N11] — higher, 58.8%
- CCCCCCCCCCCCNc1nc(NCCCN(C)C)nc(SCCCCCCCCC)n1 [Compound D6S9N12] — lower, 39.3%
- CCCCCCCCCCCCCNc1nc(NCCCN(C)C)nc(SCCCCCCCCC)n1 [Compound D6S9N13] — higher, 70.9%
- CCCCCCCCCCCCCCCNc1nc(NCCCN(C)C)nc(SCCCCCCCCC)n1 [Compound D6S9N15] — lower, 36.5%
- CCCCCCCCCCCCCCCCNc1nc(NCCCN(C)C)nc(SCCCCCCCCC)n1 [Compound D6S9N16] — lower, 46.2%
- CCCCCCCCCCCCCCCCCCNc1nc(NCCCN(C)C)nc(SCCCCCCCCC)n1 [Compound D6S9N18] — lower, 44.8%
- CCCCCCCCCCSc1nc(NCCCCCC)nc(NCCCN(C)C)n1 [Compound D6S10N6] — lower, 1.5%
- CCCCCCCCCCSc1nc(NCCCCCCC)nc(NCCCN(C)C)n1 [Compound D6S10N7] — lower, 4.4%
- CCCCCCCCCCSc1nc(NCCCCCCCC)nc(NCCCN(C)C)n1 [Compound D6S10N8] — lower, 3.7%
- CCCCCCCCCCSc1nc(NCCCCCCCCC)nc(NCCCN(C)C)n1 [Compound D6S10N9] — lower, 8.7%
- CCCCCCCCCCCNc1nc(NCCCN(C)C)nc(SCCCCCCCCCC)n1 [Compound D6S10N11] — lower, 10.0%
- CCCCCCCCCCCCNc1nc(NCCCN(C)C)nc(SCCCCCCCCCC)n1 [Compound D6S10N12] — lower, 25.4%
- CCCCCCCCCCCCCNc1nc(NCCCN(C)C)nc(SCCCCCCCCCC)n1 [Compound D6S10N13] — lower, 10.2%
- CCCCCCCCCCCCCCCNc1nc(NCCCN(C)C)nc(SCCCCCCCCCC)n1 [Compound D6S10N15] — lower, 3.5%
